“And” between values parts separate entries of the source, which are not always exact repeats. Identical values can stand only once.
How the values were obtained:
Type in all cases: cell-based
[1] = system: A549 cells overexpressing BCL-2 WT; experiment: Cell viability assay, A549 stably overexpressing BCL-2 WT; conditions: for luminescence reading (raw, replicate wells) / luminescence reading, everage / inhibition rate: BCL2-WT A549; for luminescence reading, everage: mean of 6 wells
Description: (§1) Cell viability was measured using CellTiter-Glo® 2.0 Reagent (Promega, G9242). […] After different inhibitors were added into serum-free medium and cultured for 4 h (RS4:11 for 6 h), FBS were supplemented to 10% and then incubated totally for 24 h or 48 h. Finally, the IC50 values were calculated based on measurements using a microplate reader (Thermo, Varioskan LUX). Statistical analysis was performed using software GraphPad Prism 7.0.
(§2) Lentivirus packaging vectors pMDLg/pRRE, pRSV-Rev, and pVSV-G were obtained from Prof. Han Jiahuai’s lab (Xiamen University). Lentiviruses were produced using 3rd-generation lentivirus packaging plasmids transiently transfected into HEK293T cells with the constructs of interest using 0.25 M CaCl2. Media was changed after 16 h, and supernatants containing infectious virus particles were harvested 24 h later. A second viral harvest was made following a further 24 h incubation with fresh media. Virus containing supernatant was filtered through a […], and stored at 4 °C or −80 °C until being used. Typically, A549 cells were seeded into 10 cm cell culture dishes at 4 ~ 8 × 10^5 cells/cm^2. An equivalent volume of virus containing culture medium was added along with polybrene (Sigma) to a final concentration of 10 µg/mL. Cells were incubated at 37 °C for 20 h, before they were washed and resuspended in fresh culture media. The expression level of BCL-2 was measured by qPCR and western blot methods.

[2] = system: A549 cells overexpressing BCL-2 G101V; experiment: Cell viability assay, A549 stably overexpressing BCL-2 G101V; conditions: for luminescence reading (raw, replicate wells) / luminescence reading, everage / inhibition rate: BCL2/G101V A549; for luminescence reading, everage: mean of 6 wells
Description: as §1, §2

[3] = system: Daudi cells; experiment: Cell viability assay (CellTiter-Glo), Daudi; conditions: for inhibition relative to 0 uM control, replicates / raw viability signal, replicates: Daudi, listed as ABT199
Procedure, shortened: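 Compounds added in serum-free medium for 4 h (RS4:11: 6 h), then FBS brought to 10% and incubation continued to 24 h or 48 h total at 37 °C, 5% CO2. Viability by CellTiter-Glo 2.0 luminescence; IC50 calculated.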

[4] = ABT-199 0.390625 uM, replicate wells
[5] = ABT-199 0.78125 uM, replicate wells
[6] = ABT-199 1.5625 uM, replicate wells
[7] = ABT-199 3.125 uM, replicate wells
[8] = ABT-199 6.25 uM, replicate wells
[9] = ABT-199 12.5 uM, replicate wells
[10] = Homo sapiens, A549, 48 h, CellTiter-Glo, n = 6

In the case of CC1(C)CCC(CN2CCN(c3ccc(C(=O)NS(=O)(=O)c4ccc(NCC5CCOCC5)c([N+](=O)[O-])c4)c(Oc4cnc5[nH]ccc5c4)c3)CC2)=C(c2ccc(Cl)cc2)C1 [venetoclax], the “luminescence reading (raw, replicate wells)” value ([1]; ABT-199 0.390625 uM) is reported as 644100 and 629100 and 637900 and 643500 and 647000 and 655800, the “luminescence reading, everage” value ([1]; ABT-199 0.390625 uM) is reported as 642900 and the inhibition rate [1, 4] is reported as -3.29% and -4.73% and -5.65% and -6% and -8% and -5.55%. For the same compound, the “luminescence reading (raw, replicate wells)” value ([1]; ABT-199 0.78125 uM) was 567400 and 598600 and 586100 and 654900 and 608300 and 579900, the “luminescence reading, everage” value ([1]; ABT-199 0.78125 uM) was 599200 and the inhibition rate [1, 5] was 1.72% and 3.77% and -7.52% and 0.129% and 5% and 1.62%. The “luminescence reading (raw, replicate wells)” value ([1]; ABT-199 1.5625 uM) was 298800 and 328200 and 290000 and 313400 and 302200 and 296200, the “luminescence reading, everage” value ([1]; ABT-199 1.5625 uM) was 304800 and the inhibition rate [1, 6] was 52% and 49% and 50% and 51%. For the same compound, the “luminescence reading (raw, replicate wells)” value ([1]; ABT-199 3.125 uM) was 264200 and 271400 and 265500 and 281900 and 276200 and 275000, the “luminescence reading, everage” value ([1]; ABT-199 3.125 uM) was 272367 and the inhibition rate [1, 7] was 56% and 54%. For the same compound, the “luminescence reading (raw, replicate wells)” value ([1]; ABT-199 6.25 uM) was 239200 and 242900 and 250800 and 260000 and 262000 and 251900, the “luminescence reading, everage” value ([1]; ABT-199 6.25 uM) was 251133 and the inhibition rate [1, 8] was 59% and 57%. The “luminescence reading (raw, replicate wells)” value ([1]; ABT-199 12.5 uM) was 192300 and 201400 and 189800 and 189400 and 190500 and 194300, the “luminescence reading, everage” value ([1]; ABT-199 12.5 uM) was 192950 and the inhibition rate [1, 9] was 69% and 68%. The “luminescence reading (raw, replicate wells)” value ([1]; ABT-199 25 uM) was 124100 and 129200 and 123800 and 128900 and 121100 and 127700, the “luminescence reading, everage” value ([1]; ABT-199 25 uM) was 125800 and the inhibition rate ([1]; ABT-199 25 uM, replicate wells) was 80%. The “luminescence reading (raw, replicate wells)” value ([1]; ABT-199 50 uM) was 61440 and 62870 and 63340 and 62270 and 63280 and 66020, the “luminescence reading, everage” value ([1]; ABT-199 50 uM) was 63203 and the inhibition rate ([1]; ABT-199 50 uM, replicate wells) was 89%. The “luminescence reading (raw, replicate wells)” value ([1]; ABT-199 100 uM) was 19300 and 21810 and 21770 and 21930 and 21040 and 20180, the “luminescence reading, everage” value ([1]; ABT-199 100 uM) was 21005 and the inhibition rate ([1]; ABT-199 100 uM, replicate wells) was 97%. For the same compound, the “luminescence reading (raw, replicate wells)” value ([1]; ABT-199 200 uM) was 4077 and 3911 and 4092 and 4449 and 4173 and 4465, the “luminescence reading, everage” value ([1]; ABT-199 200 uM) was 4195 and the inhibition at 1.5625 µM ([1]; Homo sapiens, A549, BCL2-WT A549, ABT-199 1.5625 uM, replicate wells, read-out: inhibition rate) was 46%. The inhibition at 3.125 µM ([1]; Homo sapiens, A549, BCL2-WT A549, ABT-199 3.125 uM, replicate wells, read-out: inhibition rate) was 55%, the inhibition at 6.25 µM ([1]; Homo sapiens, A549, BCL2-WT A549, ABT-199 6.25 uM, replicate wells, read-out: inhibition rate) was 60% and the inhibition at 12.5 µM ([1]; Homo sapiens, A549, BCL2-WT A549, ABT-199 12.5 uM, replicate wells, read-out: inhibition rate) was 67%. For the same compound, the inhibition at 25 µM ([1]; Homo sapiens, A549, BCL2-WT A549, ABT-199 25 uM, replicate wells, read-out: inhibition rate) was 79%, the inhibition at 50 µM ([1]; Homo sapiens, A549, BCL2-WT A549, ABT-199 50 uM, replicate wells, read-out: inhibition rate) was 90% and the inhibition at 100 µM ([1]; Homo sapiens, A549, BCL2-WT A549, ABT-199 100 uM, replicate wells, read-out: inhibition rate) was 96%. For the same compound, the inhibition at 200 µM ([1]; Homo sapiens, A549, BCL2-WT A549, ABT-199 200 uM, replicate wells, read-out: inhibition rate) was 99%, the IC50 [1, 10] was 2.5 ± 0.2 µM and the “luminescence reading (raw, replicate wells)” value ([2]; ABT-199 0.390625 uM) was 626600 and 647800 and 649100 and 614500 and 623500 and 619300. The “luminescence reading, everage” value ([2]; ABT-199 0.390625 uM) was 630133, the inhibition rate [2, 4] was -3% and -6.36% and -6.57% and -0.889% and -2.37% and -1.68% and the “luminescence reading (raw, replicate wells)” value ([2]; ABT-199 0.78125 uM) was 583300 and 568200 and 597700 and 560800 and 571600 and 528100. For the same compound, the “luminescence reading, everage” value ([2]; ABT-199 0.78125 uM) was 568283, the inhibition rate [2, 5] was 4.23% and 7% and 1.87% and 8% and 6% and 13% and the “luminescence reading (raw, replicate wells)” value ([2]; ABT-199 1.5625 uM) was 398200 and 407800 and 413600 and 450500 and 408700 and 467800. The “luminescence reading, everage” value ([2]; ABT-199 1.5625 uM) was 424433, the inhibition rate [2, 6] was 33% and 32% and 26% and 23% and the “luminescence reading (raw, replicate wells)” value ([2]; ABT-199 3.125 uM) was 271900 and 280300 and 266200 and 296500 and 277300 and 344500. The “luminescence reading, everage” value ([2]; ABT-199 3.125 uM) was 289450, the inhibition rate [2, 7] was 54% and 56% and 51% and 43% and the “luminescence reading (raw, replicate wells)” value ([2]; ABT-199 6.25 uM) was 262900 and 273800 and 273900 and 296400 and 264200 and 315700. For the same compound, the “luminescence reading, everage” value ([2]; ABT-199 6.25 uM) was 281150, the inhibition rate [2, 8] was 51% and 48% and the “luminescence reading (raw, replicate wells)” value ([2]; ABT-199 12.5 uM) was 184500 and 179700 and 182600 and 196200 and 190700 and 205800. For the same compound, the “luminescence reading, everage” value ([2]; ABT-199 12.5 uM) was 189917, the inhibition rate [2, 9] was 68% and 69% and 66% and the “luminescence reading (raw, replicate wells)” value ([2]; ABT-199 25 uM) was 98970 and 101200 and 102400 and 107200 and 99210 and 118800. The “luminescence reading, everage” value ([2]; ABT-199 25 uM) was 104630, the inhibition rate ([2]; ABT-199 25 uM, replicate wells) was 83% and 82% and 80% and the “luminescence reading (raw, replicate wells)” value ([2]; ABT-199 50 uM) was 50230 and 51420 and 49850 and 51590 and 53640 and 55790. For the same compound, the “luminescence reading, everage” value ([2]; ABT-199 50 uM) was 52087, the inhibition rate ([2]; ABT-199 50 uM, replicate wells) was 91% and the “luminescence reading (raw, replicate wells)” value ([2]; ABT-199 100 uM) was 16880 and 17260 and 16270 and 16910 and 17660 and 17950. The “luminescence reading, everage” value ([2]; ABT-199 100 uM) was 17155, the “luminescence reading (raw, replicate wells)” value ([2]; ABT-199 200 uM) was 5500 and 6087 and 6493 and 5130 and 5793 and 6329 and the “luminescence reading, everage” value ([2]; ABT-199 200 uM) was 5889. It also gave an inhibition at 1.5625 µM ([2]; Homo sapiens, A549, BCL2/G101V A549, ABT-199 1.5625 uM, replicate wells, read-out: inhibition rate) of 35%, an inhibition at 3.125 µM ([2]; Homo sapiens, A549, BCL2/G101V A549, ABT-199 3.125 uM, replicate wells, read-out: inhibition rate) of 55% and an inhibition at 6.25 µM ([2]; Homo sapiens, A549, BCL2/G101V A549, ABT-199 6.25 uM, replicate wells, read-out: inhibition rate) of 57%. It also gave an inhibition at 12.5 µM ([2]; Homo sapiens, A549, BCL2/G101V A549, ABT-199 12.5 uM, replicate wells, read-out: inhibition rate) of 70%, an inhibition at 25 µM ([2]; Homo sapiens, A549, BCL2/G101V A549, ABT-199 25 uM, replicate wells, read-out: inhibition rate) of 84% and an inhibition at 50 µM ([2]; Homo sapiens, A549, BCL2/G101V A549, ABT-199 50 uM, replicate wells, read-out: inhibition rate) of 92%. It also gave an inhibition at 100 µM ([2]; Homo sapiens, A549, BCL2/G101V A549, ABT-199 100 uM, replicate wells, read-out: inhibition rate) of 97%, an inhibition at 200 µM ([2]; Homo sapiens, A549, BCL2/G101V A549, ABT-199 200 uM, replicate wells, read-out: inhibition rate) of 99% and an IC50 [2, 10] of 4.1 ± 0.3 µM. For the same compound, the IC50 ([3]; 48 h treatment, CellTiter-Glo) was 9.1 ± 0.4 µM, the “inhibition relative to 0 uM control, replicates” value ([3]; 0.78125 uM) was -8% and 9% and -10% and 0.517% and -5.68% and 2.67% and the “raw viability signal, replicates” value ([3]; 0.78125 uM) was 1603 and 1350 and 1637 and 1476 and 1568 and 1444. For the same compound, the “inhibition relative to 0 uM control, replicates” value ([3]; 1.5625 uM) was 2.61% and -1.71% and 13% and -2.52% and -11% and 4.63%, the “raw viability signal, replicates” value ([3]; 1.5625 uM) was 1445 and 1509 and 1291 and 1521 and 1645 and 1415 and the “inhibition relative to 0 uM control, replicates” value ([3]; 3.125 uM) was 2% and 16% (2×) and 13% and 9% and 19%. The “raw viability signal, replicates” value ([3]; 3.125 uM) was 1454 and 1252 and 1287 and 1241 and 1349 and 1200.

From publication PMC10874388, “Cyclic peptides discriminate BCL-2 and its clinical mutants from BCL-XL by engaging a single-residue discrepancy” (Nature Communications, 2024)
